Laboratory results taken from patent US4188380A, “Surface active quaternary higher dialkyl phosphonium salt biocides and intermediates” (Exxon Research & Engineering Co., priority 1976, dated 1980).
Where two headings read alike, the source gives them in different places.

Assays:
[1] = Surface tension of water solutions towards air, ASTM D-971; format: physicochemical; conditions: 25°
Procedure: (§1) To obtain standard data for estimating the surface activity of quaternary higher dialkyl phosphonium salts, the surface tensions of their water solutions and the interfacial tensions of their equilibriated solutions in water and a paraffinic hydrocarbon were determined as described by ASTM D-971-50.
(§2) Didodecyl dimethyl phosphonium chloride and, for comparison, octadecyl trimethyl phosphonium chloride were tested as described above, according to ASTM D-971. The surface tension towards air measurement used distilled water at 25°, which gives a base value of 72 dynes per cm. For interfacial tension measurements a water-paraffin (Nujol) system was used. Without any added surfactant, this has an interfacial tension of 52 dynes per cm. The interfacial tension measurements of the phosphonium chloride solutions were made after equal volumes of the two immiscible solvent and the given amount of salt were slowly stirred for 30 minutes to arrive at equilibrium concentrations of the salt.

[2] = Interfacial tension in water-paraffin (Nujol) system, ASTM D-971; format: physicochemical; conditions: 25°
Procedure: as §1, §2

Aspergillus niger = assay: Broth dilution minimum inhibitory concentration, Aspergillus niger; format: cell-based; conditions: for MIC: Aspergillus niger, read-out: Minimum Inhibitory Concentration, Aspergillus niger
Procedure: (§3) In the primary biocidal testing of the quaternary higher dialkyl phosphonium salts, broth dilution was used as the primary method to determine the minimum salt concentrations necessary for a complete inhibition of bacterial, fungal and algal growth. Typically, 2 ml per tube of trypticase soy broth was used as nutrient medium. Usually 10 mg of the phosphonium chloride was dissolved in 5 ml ethanol and this was then diluted to 10 ml with water to give an aqueous ethanol stock solution of […] concentration. The inoculum of the microorganism was one drop of a thousandfold diluted 24 hour culture which usually contained 1000 bacteria or 10,000 fungal or algal cells. To the inoculated broth media, different amounts of the experimental chemicals were administered. The media were then observed for visible growth after a period dependent on the type of the microorganism used. Bacterial growth or inhibition was observed after one or two days. Growths of fungi and algae were checked after 7 or 14 days. Observing a series of dilutions of the experimental chemical, minimum growth inhibitory, i.e., microbiostatic, concentrations (MIC) were determined.
(§4) A number of quaternary phosphonium chlorides characterized in Table I were broth dilution tested against an important gram negative bacterial organism, Pseudomonas aeruginosa; a common gram positive bacterium, Staphylococcus aureus, and a widespread fungus, Aspergillus niger, and a common algal organism, Chlorella vulgaris.

Staphylococcus aureus = assay: Broth dilution minimum inhibitory concentration, Staphylococcus aureus; format: cell-based; conditions: read-out: Minimum Inhibitory Concentration, Staphylococcus aureus
Procedure: as §3, §4

Chlorella vulgaris = assay: Broth dilution minimum inhibitory concentration, Chlorella vulgaris; format: cell-based; conditions: read-out: Minimum Inhibitory Concentration, Chlorella vulgaris
Procedure: as §3, §4

Pseudomonas aeruginosa = assay: Broth dilution minimum inhibitory concentration, Pseudomonas aeruginosa; format: cell-based; conditions: for MIC: Pseudomonas aeruginosa, read-out: Minimum Inhibitory Concentration, Pseudomonas aeruginosa
Procedure: as §3, §4

Staph. aureus = assay: AOAC Germicidal and Sanitizer Test, Staph. aureus; format: cell-based; conditions: Staphylococcus aureus
Source text: (§5) To determine the effectiveness of a quaternary higher dialkyl phosphonium salt, i.e. didecyl dimethyl phosphonium chloride as a bactericide, the AOAC Germicidal and Sanitizer Test was used.

Candida albicans = assay: Broth dilution minimum inhibitory concentration, Candida albicans; format: cell-based
Procedure: as §3
(§6) To test the breadth of the microbiocidal spectrum of didecyl dimethyl phosphonium chloride, minimum inhibitory concentrations (MIC's) were determined against several additional organisms in broth dilution tests with the following results: […]

Escherichia coli = assay: Broth dilution minimum inhibitory concentration, Escherichia coli; format: cell-based
Procedure: as §3, §6

Salmonella typhosa = assay: Broth dilution minimum inhibitory concentration, Salmonella typhosa; format: cell-based; conditions: Salmonella enterica
Procedure: as §3, §6

[3] = Acute oral toxicity in Swiss albino mice; format: in vivo; conditions: mouse, in vivo, Swiss albino mice, read-out: median lethal toxicity, acute oral
Procedure: (§7) The acute oral toxicity of didecyl dimethyl phosphonium chloride and dioctadecyl diethyl phosphonium chloride was determined using Swiss albino mice. The median lethal toxicities found were 350 and 2840 mg salt per body kg mice, respectively.

mice = assay: Acute oral toxicity in Swiss albino mice; format: in vivo
Procedure: as §7

E. coli = assay: AOAC Germicidal and Sanitizer Test, E. coli; format: cell-based; conditions: Escherichia coli
Source text: as §5

[4] = test system: bacterial, fungal and algal growth; assay: Microbiocidal activity in general (broth dilution); format: cell-based
Procedure: as §3

CCCCCCCCCCCCCCCCCC[P+](C)(C)C.[Cl-] [C18 H37 P^+ (CH3)3, octadecyl trimethyl phosphonium chloride, reference compound]
Surface Tension of Water ([1]; 0.010% salt): 42 Dynes/cm
Surface Tension of Water ([1]; 0.100% salt): 41 Dynes/cm
Interfacial Tension of Water-Nujol ([2]; 0.010% salt): 12 Dynes/cm
Interfacial Tension of Water-Nujol ([2]; 0.100% salt): 10 Dynes/cm

CCCCCCCCCCCC[P+](C)(C)CCCCCCCCCCCC.[Cl-] [Example 1, Didodecyl Dimethyl Phosphonium Chloride]
MIC (Aspergillus niger; 168 h, after 7 days): 75 µg/mL
MIC (Staphylococcus aureus; 24 h, after 1 day): 1 µg/mL
MIC (Chlorella vulgaris; 168 h, after 7 days): 8 µg/mL
Surface Tension of Water ([1]; 0.001% salt): 33 Dynes/cm
Surface Tension of Water ([1]; 0.0025% salt): 33 Dynes/cm
Surface Tension of Water ([1]; 0.005% salt): 32 Dynes/cm
Surface Tension of Water ([1]; 0.0075% salt): 31 Dynes/cm
Surface Tension of Water ([1]; 0.010% salt): 31 Dynes/cm
Surface Tension of Water ([1]; 0.100% salt): 29 Dynes/cm
activity against Pseudomonas aeruginosa (Pseudomonas aeruginosa): no significant activity
MIC (Pseudomonas aeruginosa; 24 h, after 1 day): 2500 µg/mL
Interfacial Tension of Water-Nujol ([2]; 0.001% salt): 3 Dynes/cm
Interfacial Tension of Water-Nujol ([2]; 0.0025% salt): 3 Dynes/cm
Interfacial Tension of Water-Nujol ([2]; 0.005% salt): 3 Dynes/cm
Interfacial Tension of Water-Nujol ([2]; 0.0075% salt): 3 Dynes/cm
Interfacial Tension of Water-Nujol ([2]; 0.010% salt): 3 Dynes/cm
Interfacial Tension of Water-Nujol ([2]; 0.100% salt): 2 Dynes/cm

CCCCCCCCCC[P+](C)(C)CCCCCCCCCC.[Cl-] [Example 3, Didecyl Dimethyl Phosphonium Chloride]
MIC (Aspergillus niger; 336 h): 0.25 µg/mL
minimum inhibitory concentration against Aspergillus niger relative to didodecyl dimethyl phosphonium chloride (Aspergillus niger; didecyl versus didodecyl compound (Seq. No. 4)): three hundred times smaller
MIC (Staphylococcus aureus; 48 h): 0.5 µg/mL
killing at 25 ppm (Staph. aureus; read-out: Reduction of live Bacterial Organisms in Distilled Water): 100%
killing at 25 ppm (Staph. aureus; read-out: Reduction of live Bacterial Organisms in water of 200 ppm Hardness): 100%
MIC (Chlorella vulgaris; 336 h): 0.125 µg/mL
MIC (Candida albicans): 0.25 µg/mL
activity against Pseudomonas aeruginosa (Pseudomonas aeruginosa): Particularly outstanding
MIC (Pseudomonas aeruginosa; 24 h): 16 µg/mL
MIC (Escherichia coli): 0.5 µg/mL
MIC (Salmonella typhosa): 8 µg/mL
LD50 [3]: 350 mg/kg
level of oral toxicity (mice): medium level of oral toxicity
killing at 25 ppm (E. coli; 200 ppm hardness, read-out: Reduction of live Bacterial Organisms in water of 200 ppm Hardness): 99.9%
killing at 25 ppm (E. coli; distilled water, read-out: Reduction of live Bacterial Organisms in Distilled Water): 100%

CCCCCCCC[P+](C)(C)CCCCCCCC.[Cl-] [Example 4, Dioctyl Dimethyl Phosphonium Chloride]
MIC (Aspergillus niger; 336 h, after 14 days): 7.5 µg/mL
MIC (Staphylococcus aureus; 48 h, after 2 days): 0.5 µg/mL
MIC (Chlorella vulgaris; 336 h, after 14 days): 4 µg/mL
MIC (Pseudomonas aeruginosa; 24 h, after 1 day): 250 µg/mL

CCCCCCCC[P+](C)(CC)CCCCCCCC.[Cl-] [Example 5, Dioctyl Ethyl Methyl Phosphonium Chloride]
MIC (Pseudomonas aeruginosa; 48 h, after 2 days): 250 µg/mL

CCCCCCCCCCCC[P+](CC)(CCCCCCCCCCCC)CC(C)C.[Cl-] [Example 6, Didodecyl Isobutyl Ethyl Phosphonium Chloride]
MIC (Aspergillus niger; 336 h, after 14 days): 1 µg/mL
MIC (Staphylococcus aureus; 24 h, after 1 day): 0.5 µg/mL
MIC (Chlorella vulgaris; 336 h, after 14 days): 0.5 µg/mL
activity against Pseudomonas aeruginosa (Pseudomonas aeruginosa): Particularly outstanding
MIC (Pseudomonas aeruginosa; 24 h, after 1 day): 16 µg/mL
solubility in toluene (Solubility in toluene): highly soluble in toluene

CCCCCCCCCCCCCCCC[P+](CC)(CCCCCCCCCCCCCCCC)CC(C)C.[Cl-] [Example 7, Dihexadecyl Isobutyl Ethyl Phosphonium Chloride]
MIC (Aspergillus niger; 336 h, after 14 days): 0.5 µg/mL
MIC (Staphylococcus aureus; 24 h, after 1 day): 0.5 µg/mL
MIC (Chlorella vulgaris; 336 h, after 14 days): 0.5 µg/mL
activity against Pseudomonas aeruginosa (Pseudomonas aeruginosa): Particularly outstanding
MIC (Pseudomonas aeruginosa; 24 h, after 1 day): 16 µg/mL

CCCCCCCCCCCCCCCCCC[P+](CC)(CC)CCCCCCCCCCCCCCCCCC.[Cl-] [Example 8, Dioctadecyl Diethyl Phosphonium Chloride]
MIC (Aspergillus niger; 336 h): 15 µg/mL
MIC (Staphylococcus aureus; 48 h): 15 µg/mL
microbiocidal activity [4]: not highly active microbiocidally
MIC (Chlorella vulgaris; 336 h): 7.5 µg/mL
MIC (Pseudomonas aeruginosa; 48 h): 500 µg/mL
LD50 [3]: 2840 mg/kg
level of oral toxicity (mice): essential lack of oral toxicity
